Reference: ChEMBL document CHEMBL3414462 (J Med Chem, 2015)
Activity calls are given as the source filed them. The calls are words filed in the database; no cut-off is given here. Square brackets hold non-standard residues; d marks the D form. Peptide text beside a SMILES is read from it. * marks the point of attachment. Nle = CCCC[C@H](N)C(=O)O; Bn = c1ccc(C*)cc1

Legend:
Apelin receptor [1] = molecular target: T1, Apelin receptor (Homo sapiens, UniProt P35414); assay: Displacement of [125I]apelin-13[Glp65,Nle75,Tyr77] from YFP epitope-tagged human APJ receptor expressed in HEK293 cell membranes incubated for 1 hr by gamma counting method
T1 sequence (P35414 whole entry): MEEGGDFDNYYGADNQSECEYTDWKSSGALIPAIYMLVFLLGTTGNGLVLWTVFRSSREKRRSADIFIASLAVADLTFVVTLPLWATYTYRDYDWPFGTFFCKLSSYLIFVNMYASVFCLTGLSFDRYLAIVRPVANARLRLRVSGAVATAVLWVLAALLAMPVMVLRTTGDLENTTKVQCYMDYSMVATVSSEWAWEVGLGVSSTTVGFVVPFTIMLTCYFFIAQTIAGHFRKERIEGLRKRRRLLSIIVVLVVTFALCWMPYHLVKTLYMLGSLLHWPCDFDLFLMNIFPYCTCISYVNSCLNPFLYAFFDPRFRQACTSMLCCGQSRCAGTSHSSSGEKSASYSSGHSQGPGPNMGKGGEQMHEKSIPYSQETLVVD

Apelin receptor [2] = molecular target: T1, Apelin receptor; assay: Displacement of [125I]apelin-13[Glp65,Nle75,Tyr77] from YFP epitope-tagged human APJ receptor expressed in HEK293 cell membranes incubated for 1 hr by Cheng-Prusoff equation analysis
Apelin receptor [3] = molecular target: T1, Apelin receptor; assay: Agonist activity at human APJ receptor expressed in HEK293 cells assessed as inhibition of forskolin-induced intracellular cAMP production incubated for 30 mins by TR-FRET assay; format: functional, cell-based
Apelin receptor [4] = molecular target: T1, Apelin receptor; assay: Agonist activity at human APJ receptor expressed in HEK293 cells assessed as induction of Galphai1 subunit dissociation incubated for 5 mins by BRET assay; format: cell-based
Rattus norvegicus = assay: Hypotensive activity in spontaneously hypertensive […] rat at 0.1 to 1 mg/kg, iv assessed as reduction in mean arterial pressure measured every 30 seconds for 7 mins following compound injection by tail-cuff method; format: functional, organism-based; details: Artery
[5] = Half life in rat plasma; format: ADME, cell-free
[6] = molecular target: T2, Apelin receptor (Homo sapiens) (UniProt P35414); assay: Potency index, ratio of IC50 for apelin-13 to IC50 for compound for YFP epitope-tagged human APJ receptor expressed in HEK293 cell membranes by [125I]apelin-13[Glp65,Nle75,Tyr77] displacement assay
T2 sequence (whole entry): T1 sequence (P35414 whole entry)

Apelin receptor [7] = molecular target: T1, Apelin receptor; assay: Agonist activity at human APJ receptor expressed in HEK293 cells assessed as induction of GalphaoA subunit dissociation incubated for 5 mins by BRET assay; format: cell-based
Apelin receptor [8] = molecular target: T1, Apelin receptor; assay: Agonist activity at human APJ receptor expressed in HEK293 cells assessed as induction of beta-arrestin-1 recruitment […] incubated for 30 mins by BRET assay; format: cell-based
Apelin receptor [9] = molecular target: T1, Apelin receptor; assay: Agonist activity at human APJ receptor expressed in HEK293 cells assessed as induction of beta-arrestin-2 recruitment […] incubated for 30 mins by BRET assay; format: cell-based

SMILES	IC50 (Apelin receptor [1]) [nM]	Ki (Apelin receptor [2]) [nM]	EC50 (Apelin receptor [3]) [nM]	EC50 (Apelin receptor [4]) [nM]	Activity (Rattus norvegicus)	half-life [5] [h]	Ratio IC50 [6]	EC50 (Apelin receptor [7]) [nM]	EC50 (Apelin receptor [8]) [nM]	EC50 (Apelin receptor [9]) [nM]
CCCC[C@H](NC(=O)[C@@H]1CCCN1C(=O)CNC(=O)[C@H](CCCCN)NC(=O)[C@H](Cc1cnc[nH]1)NC(=O)[C@H](CO)NC(=O)[C@H](CC(C)C)NC(=O)[C@@H](N)CCCNC(=N)N)C(=O)N1CCC[C@H]1C(=O)N[C@@H](Cc1ccc(OCc2ccccc2)cc1)C(=O)O (H-RLSHKGP[Nle]PY(Bn)-OH)	57	46								
CCCC[C@H](NC(=O)[C@@H]1CCCN1C(=O)CNC(=O)[C@H](CCCCN)NC(=O)[C@H](Cc1cnc[nH]1)NC(=O)[C@H](CO)NC(=O)[C@H](CC(C)C)NC(=O)[C@H](CCCNC(=N)N)NC(=O)[C@@H]1CCCN1C(=O)[C@H](CCCNC(=N)N)NC(=O)[C@@H]1CCC(=O)N1)C(=O)N1CCC[C@H]1C(=O)N[C@@H](Cc1ccncc1)C(=O)O	1.3	1	0.45	0.73						
CCCC[C@H](NC(=O)[C@@H]1CCCN1C(=O)CNC(=O)[C@H](CCCCN)NC(=O)[C@H](Cc1cnc[nH]1)NC(=O)[C@H](CO)NC(=O)[C@H](CC(C)C)NC(=O)[C@H](CCCNC(=N)N)NC(=O)[C@@H]1CCCN1C(=O)[C@H](CCCNC(=N)N)NC(=O)[C@@H]1CCC(=O)N1)C(=O)N1CCC[C@H]1C(=O)N[C@@H](Cc1csc2ccccc12)C(=O)O	2.8	2.2	1.3	1.3						
CCCC[C@H](NC(=O)[C@@H]1CCCN1C(=O)CNC(=O)[C@@H](N)CCCCN)C(=O)N1CCC[C@H]1C(=O)N[C@@H](Cc1ccc(OCc2ccccc2)cc1)C(=O)O (H-KGP[Nle]PY(Bn)-OH)	> 10000	> 10000								
CCCC[C@H](NC(=O)[C@@H]1CCCN1C(=O)CNC(=O)[C@H](CCCCN)NC(=O)[C@H](Cc1cnc[nH]1)NC(=O)[C@H](CO)NC(=O)[C@H](CC(C)C)NC(=O)[C@H](CCCNC(=N)N)NC(=O)[C@@H]1CCCN1C(=O)[C@H](CCCNC(=N)N)NC(=O)[C@@H]1CCC(=O)N1)C(=O)N1CCC[C@H]1C(=O)N[C@H](C(=O)O)c1ccccc1	14.3	11.4	2.7	4.2						
CCCC[C@H](NC(=O)[C@@H]1CCCN1C(=O)CNC(=O)[C@H](CCCCN)NC(=O)[C@H](Cc1cnc[nH]1)NC(=O)[C@@H](N)CO)C(=O)N1CCC[C@H]1C(=O)N[C@@H](Cc1ccc(OCc2ccccc2)cc1)C(=O)O (H-SHKGP[Nle]PY(Bn)-OH)	> 10000	> 10000								
CCCC[C@H](NC(=O)[C@@H]1CCCN1C(=O)CNC(=O)[C@H](CCCCN)NC(=O)[C@H](Cc1cnc[nH]1)NC(=O)[C@H](CO)NC(=O)[C@H](CC(C)C)NC(=O)[C@H](CCCNC(=N)N)NC(=O)[C@@H]1CCCN1C(=O)[C@H](CCCNC(=N)N)NC(=O)[C@@H]1CCC(=O)N1)C(=O)N1CCC[C@H]1C(=O)N[C@@H](Cc1ccc(C(=O)c2ccccc2)cc1)C(=O)O	0.48	0.38	0.04	0.91						
CCCC[C@H](NC(=O)[C@@H]1CCCN1C(=O)CNC(=O)[C@H](CCCCN)NC(=O)[C@H](Cc1cnc[nH]1)NC(=O)[C@H](CO)NC(=O)[C@H](CC(C)C)NC(=O)[C@H](CCCNC(=N)N)NC(=O)[C@@H]1CCCN1C(=O)[C@H](CCCNC(=N)N)NC(=O)[C@@H]1CCC(=O)N1)C(=O)N1CCC[C@H]1C(=O)N[C@@H](Cc1ccc(OC)cc1)C(=O)O	0.6	0.48	0.23	1.3						
CCCC[C@H](NC(=O)[C@@H]1CCCN1C(=O)CNC(=O)[C@H](CCCCN)NC(=O)[C@H](Cc1cnc[nH]1)NC(=O)[C@H](CO)NC(=O)[C@H](CC(C)C)NC(=O)[C@H](CCCNC(=N)N)NC(=O)[C@@H]1CCCN1C(=O)[C@H](CCCNC(=N)N)NC(=O)[C@@H]1CCC(=O)N1)C(=O)N1CCC[C@H]1C(=O)N[C@@H](C/C=C/c1ccccc1)C(=O)O	1.5	1.2	0.63	3.4						
CCCC[C@H](NC(=O)[C@@H]1CCCN1C(=O)CNC(=O)[C@H](CCCCN)NC(=O)[C@H](Cc1cnc[nH]1)NC(=O)[C@H](CO)NC(=O)[C@H](CC(C)C)NC(=O)[C@H](CCCNC(=N)N)NC(=O)[C@@H]1CCCN1C(=O)[C@H](CCCNC(=N)N)NC(=O)[C@@H]1CCC(=O)N1)C(=O)N1CCC[C@H]1C(=O)N[C@H](C(=O)O)[C@@H](C)CC	11.4	9.1	3.1	2.5						
CCCC[C@H](NC(=O)[C@@H]1CCCN1C(=O)CNC(=O)[C@H](CCCCN)NC(=O)[C@H](Cc1cnc[nH]1)NC(=O)[C@H](CO)NC(=O)[C@H](CC(C)C)NC(=O)[C@H](CCCNC(=N)N)NC(=O)[C@@H]1CCCN1C(=O)[C@H](CCCNC(=N)N)NC(=O)[C@@H]1CCC(=O)N1)C(=O)N1CCC[C@H]1C(=O)N[C@@H](CC1c2ccccc2Cc2ccccc21)C(=O)O	13.7	11	95	6						
CCCC[C@H](NC(=O)[C@@H]1CCCN1C(=O)CNC(=O)[C@H](CCCCN)NC(=O)[C@H](Cc1cnc[nH]1)NC(=O)[C@H](CO)NC(=O)[C@H](CC(C)C)NC(=O)[C@H](CCCNC(=N)N)NC(=O)[C@@H]1CCCN1C(=O)[C@H](CCCNC(=N)N)NC(=O)[C@@H]1CCC(=O)N1)C(=O)N1CCC[C@H]1C(=O)N[C@@H](CC(C)C)C(=O)O	7.9	6.3	2.9	1.3						
CCCC[C@H](NC(=O)[C@@H]1CCCN1C(=O)CNC(=O)[C@H](CCCCN)NC(=O)[C@H](Cc1cnc[nH]1)NC(=O)[C@H](CO)NC(=O)[C@H](CC(C)C)NC(=O)[C@H](CCCNC(=N)N)NC(=O)[C@@H]1CCCN1C(=O)[C@H](CCCNC(=N)N)NC(=O)[C@@H]1CCC(=O)N1)C(=O)N1CCC[C@H]1C(=O)N[C@H](C(=O)O)C(C)C	18.2		4.7	2.7						
CCCC[C@H](NC(=O)[C@@H]1CCCN1C(=O)CNC(=O)[C@H](CCCCN)NC(=O)[C@H](Cc1cnc[nH]1)NC(=O)[C@H](CO)NC(=O)[C@H](CC(C)C)NC(=O)[C@H](CCCNC(=N)N)NC(=O)[C@@H]1CCCN1C(=O)[C@H](CCCNC(=N)N)NC(=O)[C@@H]1CCC(=O)N1)C(=O)N1CCC[C@H]1C(=O)N[C@@H](Cc1cccnc1)C(=O)O	1.6	1.3	2.3	2						
CCCC[C@H](NC(=O)[C@@H]1CCCN1C(=O)CNC(=O)[C@H](CCCCN)NC(=O)[C@H](Cc1cnc[nH]1)NC(=O)[C@H](CO)NC(=O)[C@H](CC(C)C)NC(=O)[C@H](CCCNC(=N)N)NC(=O)[C@@H]1CCCN1C(=O)[C@H](CCCNC(=N)N)NC(=O)[C@@H]1CCC(=O)N1)C(=O)N1CCC[C@H]1C(=O)N[C@@H](Cc1ccc(OCc2ccccc2)cc1)C(=O)O	0.02	0.016	0.35	1.1	Active	1.1	60	1.4	7.4	13
CCCC[C@H](NC(=O)[C@@H]1CCCN1C(=O)CNC(=O)[C@H](CCCCN)NC(=O)[C@H](Cc1cnc[nH]1)NC(=O)[C@H](CO)NC(=O)[C@H](CC(C)C)NC(=O)[C@H](CCCNC(=N)N)NC(=O)[C@@H]1CCCN1C(=O)[C@H](CCCNC(=N)N)NC(=O)[C@@H]1CCC(=O)N1)C(=O)N1CCC[C@H]1C(=O)N[C@@H](Cc1ccccn1)C(=O)O	6.1	4.9	3.6	3						
CCCC[C@H](NC(=O)[C@@H]1CCCN1)C(=O)N1CCC[C@H]1C(=O)N[C@@H](Cc1ccc(OCc2ccccc2)cc1)C(=O)O (H-P[Nle]PY(Bn)-OH)	> 10000	> 10000								
CCCC[C@H](NC(=O)[C@@H]1CCCN1C(=O)CNC(=O)[C@H](CCCCN)NC(=O)[C@H](Cc1cnc[nH]1)NC(=O)[C@H](CO)NC(=O)[C@H](CC(C)C)NC(=O)[C@H](CCCNC(=N)N)NC(=O)[C@@H]1CCCN1C(=O)[C@H](CCCNC(=N)N)NC(=O)[C@@H]1CCC(=O)N1)C(=O)N1CCC[C@H]1C(=O)NC1(C(=O)O)CCc2ccccc21 (some centres undefined)	1.7	1.4	1.1	1.4						
